# Where two headings read alike, the source gives them in different places.
# Assays:
# H. pylori = assay: Minimum inhibitory concentration, broth microdilution (CLSI); format: cell-based, Helicobacter pylori (ATCC 43504)
# Protocol: H. pylori (ATCC 43504; […] The minimum inhibitory concentration (MIC) values were determined using the broth microdilution protocol according to the methods of the Clinical and Laboratory Standards Institute (CLSI)[21].
# H. pylori urease = target: T1, H. pylori urease (Helicobacter pylori, UniProt P69996); assay: Urease inhibition, extracted H. pylori urease (indophenol method); format: biochemical; details: for IC50: extracted H. pylori urease
# T1 construct: endogenous in cells; host or cells: H. pylori ATCC 43504; sonicated, supernatant desalted on Sephadex G-25 (crude extract)
# Protocol: For urease inhibition assays, 50 mL broth cultures (2.0 × 10^8 CFU/mL) were centrifuged (5000×g, 4 °C) to collect the bacteria, and after washing twice with phosphate-buffered saline (pH 7.4), the H. pylori precipitation was stored at –80 °C for 8 h, and then was returned to room temperature, and after addition of 3 mL of distilled water and protease inhibitors, sonication was performed for 60 s. Following centrifugation (15,000×g, 4 °C), the supernatant was desalted through Sephadex G-25 column (PD-10 columns, Amersham Pharmacia Biotech, Uppsala, Sweden). The resultant crude urease solution was added to an equal volume of glycerol and stored at 4 °C until use in the experiment.
# Urease activity was determined in the 96-well assay plate by measuring ammonia production using the indophenol method as described by Weatherburn[20]. Briefly, to each well, 50 µL of urea (10 mM) in phosphate buffer solution was added in a mixture of 25 µL (10 U) of H. pylori urease and 25 µL of the test compound, which was incubated at 37 °C for 0.5 h. Fifty µL of phenol reagent (containing 127 mM phenol and 0.168 mM sodium nitroprusside) and 50 µL of alkali reagent (containing 125 mM NaOH and 0.168 mM NaOCl) were added in turn. The resulted mixture was incubated at 37 °C for another 0.5 h for colouration developing. The increasing absorbance was measured at 630 nm after 50 min using a microplate reader (Molecular Devices, San Jose, CA). Percentage inhibitions were calculated from the following formula (Equation (1)). Experiments were performed in triplicate and AHA was used as reference drug, and the IC50 value was determined as the concentration of compound that give 50% inhibition of maximal activity. As for the urease assay of intact cells, 25 µL (10 U) of H. pylori urease was replaced by 25 µL of cell suspension (4.0 × 10^7 CFU/mL).
# [1] = target: T2, urease in intact H. pylori cell (Helicobacter pylori, UniProt P69996); assay: Urease inhibition in intact H. pylori cell (indophenol method); format: cell-based
# T2 construct: H. pylori urease was replaced by 25 µL of cell suspension (4.0 × 10^7 CFU/mL); endogenous in cells; host or cells: intact H. pylori ATCC 43504 cells
# Jack bean urease [2] = target: T3, Jack bean urease (Canavalia ensiformis, UniProt P07374); assay: Ligand affinity by surface plasmon resonance (SPR); format: binding; details: for kon: pH 7.4; for koff: pH 7.4, SPR, immobilised urease, PBS pH 7.4
# T3 construct: purchased
# Protocol: The binding kinetics of selected compounds were assayed via surface plasmon resonance (SPR) using an OPEN SPR instrument (Nicoya Lifesciences, Kitchener, Canada). First, urease dissolved (50 µg/mL) in PBS buffer (1 mM KH2PO4, 155 mM NaCl, 3 mM Na2HPO4-12H2O, pH 7.4), was immobilised to a CM5 chip using a standard amine coupling procedure. Then, SPR measurements were carried out in PBS, and stock solutions were diluted in the same buffer. Data were collected with OpenSPR control software. Experiments were performed by monitoring the refractive index changes as a function of time under constant flow rate of 20 µL/min. The relative amount of inhibitor bound to the urease was determined by measuring the net increase in refractive index over time compared to control running buffer. There is an inline subtraction of reference surface during the run. This change is usually reported in response units (RU). Sensograms were processed and analysed using TraceDrawer software. The binding curves were fit to determine the equilibrium dissociation constant (KD).
# In the present paper, the pure Jack bean urease from commercial was used for this assay because of non-availability of pure H. pylori urease. […] For efficient and tight ligand binding, the rate constant koff is of particular interest, because koff has a potential to differentiate indistinguishable compounds with similar affinities.
# Jack bean urease [3] = target: T3, Jack bean urease; assay: Enzyme kinetic study (indophenol method); format: biochemical; details: for Type of inhibition: Jack bean urease; for Ki': dissociation constant of urease-urea-inhibitor complex
# Protocol: Based on the indophenol method, the velocity of ammonia production (V) was measured in the presence of concentration gradients of urea ([S]) for every specific concentration of selected compounds ([I]). Nonlinear fitting curves to data of V and [S] were used to determine the type of enzyme inhibition based on the general kinetics equation (Equation (1)). Subsequently, the resulted fitting constants ( Km/Vmax(1+[I]/Ki) or 1/Vmax(1+[I]/Ki′) ) and [I] were linearly fitted to give kinetic parameters Ki and Ki', respectively. The experimental assay was performed against a pure urease (Jack bean urease) for the consideration of precision. (1) V=Vmax[S]/Km(1+[I]/Ki)+(1+[I]/K^′i)[S]
# Mazzei et al. confirmed that urease shared the mechanism of catalysis and inhibition regardless of the biological sources[27]^,[28]. For excluding the possible interference, a pure urease (Jack bean urease) was therefore used for kinetic assays. As an example, Figure 2 describes the preincubation-time dependence of urease inhibition by b19. The suppressed urease activity maintained at relatively constant values with the increasing preincubation time under different concentrations of b19, resulting in nearly equal IC50 values.
# Similarly, kinetic parameters ( Ki and Ki' ) and inhibition types of other compounds were also determined and are shown in Table 3.
# [4] = Cytotoxicity MTT assay, P69; format: cell-based; details: human, P69 cells (normal prostate cell line), 25 μg/mL
# Protocol: (§1) The stock solutions of the selected compounds (250 µg/mL, in PBS) were prepared in medium. L-02 cells and P69 cells were grown in medium (90% RPMI-1640 medium, 10% foetal bovine serum, 1% penicillin/streptomycin) and maintained at 37 °C in a humidified atmosphere containing 5% CO2, respectively. Cells were seeded in 96-well cell culture plates. On the day when seeding, the cells were exposed to 250 µg/mL of compounds and further cultured for 72 h at 37 °C. Cell proliferation was then determined using the thiazolyl blue tetrazolium bromide (MTT) assay.
# [5] = Cytotoxicity MTT assay, L-02; format: cell-based; details: human, L-02 cells (normal hepatic cell line), 25 μg/mL
# Protocol: as §1
# [6] = Helicobacter pylori, pH=4.0, read-out: MIC pH=4.0
# [7] = Helicobacter pylori, pH=7.0, read-out: MIC pH=7.0
# T1 sequence (P14916 whole entry): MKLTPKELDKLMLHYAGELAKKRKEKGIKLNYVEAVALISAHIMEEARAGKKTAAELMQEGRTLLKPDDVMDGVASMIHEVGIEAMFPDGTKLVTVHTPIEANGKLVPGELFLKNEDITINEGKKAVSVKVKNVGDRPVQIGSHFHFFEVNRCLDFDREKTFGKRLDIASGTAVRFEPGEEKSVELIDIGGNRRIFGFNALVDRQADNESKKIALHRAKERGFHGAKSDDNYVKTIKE
# T1 sequence (P69996 whole entry): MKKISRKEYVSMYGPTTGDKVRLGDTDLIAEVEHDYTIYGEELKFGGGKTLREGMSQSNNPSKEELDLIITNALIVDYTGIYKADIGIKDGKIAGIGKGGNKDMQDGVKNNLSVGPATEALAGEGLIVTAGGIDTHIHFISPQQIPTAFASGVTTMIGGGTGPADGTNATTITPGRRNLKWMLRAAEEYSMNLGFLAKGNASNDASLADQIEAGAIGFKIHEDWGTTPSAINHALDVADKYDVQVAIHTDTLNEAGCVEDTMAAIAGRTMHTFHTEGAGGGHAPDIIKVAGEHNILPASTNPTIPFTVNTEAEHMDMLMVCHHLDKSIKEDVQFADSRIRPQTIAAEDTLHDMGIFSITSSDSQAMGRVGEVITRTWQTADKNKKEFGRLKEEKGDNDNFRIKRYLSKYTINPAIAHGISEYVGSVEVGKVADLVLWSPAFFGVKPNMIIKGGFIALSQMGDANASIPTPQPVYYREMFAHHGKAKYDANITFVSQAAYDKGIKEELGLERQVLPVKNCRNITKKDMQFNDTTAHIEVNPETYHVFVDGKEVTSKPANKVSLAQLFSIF
# T3 sequence (P07374 whole entry, looked up): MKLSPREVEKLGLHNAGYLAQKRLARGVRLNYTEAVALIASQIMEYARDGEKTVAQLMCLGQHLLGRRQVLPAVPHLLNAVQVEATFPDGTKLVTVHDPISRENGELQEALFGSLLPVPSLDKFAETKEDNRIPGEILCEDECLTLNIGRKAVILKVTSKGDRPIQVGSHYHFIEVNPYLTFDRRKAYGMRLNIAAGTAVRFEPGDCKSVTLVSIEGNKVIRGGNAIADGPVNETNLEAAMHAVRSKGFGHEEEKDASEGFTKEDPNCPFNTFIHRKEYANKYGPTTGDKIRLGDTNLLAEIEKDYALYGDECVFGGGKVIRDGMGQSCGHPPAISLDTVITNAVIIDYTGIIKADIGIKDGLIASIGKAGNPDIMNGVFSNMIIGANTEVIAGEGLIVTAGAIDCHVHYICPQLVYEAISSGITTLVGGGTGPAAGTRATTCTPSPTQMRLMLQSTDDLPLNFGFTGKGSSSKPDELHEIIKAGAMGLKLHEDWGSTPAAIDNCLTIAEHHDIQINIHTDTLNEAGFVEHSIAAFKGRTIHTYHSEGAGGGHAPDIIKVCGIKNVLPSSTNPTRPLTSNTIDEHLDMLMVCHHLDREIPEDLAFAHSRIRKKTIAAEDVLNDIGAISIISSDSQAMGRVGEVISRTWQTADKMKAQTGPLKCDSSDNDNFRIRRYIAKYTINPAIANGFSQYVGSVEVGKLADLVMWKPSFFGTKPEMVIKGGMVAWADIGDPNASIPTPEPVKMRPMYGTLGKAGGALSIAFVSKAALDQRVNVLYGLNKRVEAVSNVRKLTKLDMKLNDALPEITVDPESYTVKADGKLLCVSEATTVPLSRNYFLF
# T2 sequence (P69996 whole entry): as the sequence (P69996 whole entry) above
# T2 sequence (P14916 whole entry, further chain): as the sequence (P14916 whole entry) above
structure (smiles),measurement,setting,value
"CC(=O)NO [AHA, acetohydroxamic acid, reference compound]",MIC,"H. pylori; pH=4.0, read-out: MIC pH=4.0",16.0 µM
same,MIC,"H. pylori; pH=7.0, read-out: MIC pH=7.0",>64.0 µM
same,IC50,H. pylori urease; read-out: IC50 Extracted urease,27.2 ± 0.7 µM
same,IC50,"[1]; intact H. pylori cell suspension, read-out: IC50 Urease in intact cell",171 ± 9 µM
NC(=S)NC(=O)Cc1cccc(Br)c1 [b2],melting point,,207.4 to 208.8 °C
same,IC50,H. pylori urease; IC50 Extracted urease,58.4 ± 4.3 µM
NC(=S)NC(=O)Cc1ccc(Cl)c(Cl)c1 [b3],melting point,,202.1 to 203.4 °C
same,IC50,H. pylori urease; IC50 Extracted urease,63 ± 4.6 µM
NC(=S)NC(=O)Cc1cccc(O)c1 [b4],melting point,,160.3 to 161.5 °C
same,Kd,Jack bean urease [2],0.644 ± 0.0092 µM
same,kon,Jack bean urease [2],60800 M⁻¹ s⁻¹
same,koff,Jack bean urease [2],0.0389 s⁻¹
same,Ki,Jack bean urease [3],4.34 µM
same,Type of inhibition,Jack bean urease [3],Reversible
same,Ki',Jack bean urease [3],8.52 µM
same,MIC,H. pylori; [6],64 µM
same,MIC,H. pylori; [7],> 64 µM
same,IC50,H. pylori urease; IC50 Extracted urease,16.3 ± 0.3 µM
same,"viability at 72 h, 25 µg/mL",[4],88.1%
same,"viability at 72 h, 25 µg/mL",[5],93.7%
same,IC50,[1],108 ± 6.1 µM
COc1cccc(CC(=O)NC(N)=S)c1 [b5],melting point,,184.5 to 186.1 °C
same,IC50,H. pylori urease; IC50 Extracted urease,75.8 ± 5.7 µM
NC(=S)NC(=O)Cc1ccccc1F [b6],melting point,,157.2 to 159 °C
same,IC50,H. pylori urease; IC50 Extracted urease,41.9 ± 2.5 µM
NC(=S)NC(=O)Cc1cccc(Cl)c1 [b7],melting point,,136.6 to 137.4 °C
same,IC50,H. pylori urease; IC50 Extracted urease,63.6 ± 5.1 µM
same,"fold decrease in potency relative to b19, extracted urease",H. pylori urease; ratio of IC50 values vs b19,397 fold
NC(=S)NC(=O)Cc1ccc(O)cc1 [b8],melting point,,177.1 to 178.3 °C
same,Kd,Jack bean urease [2],0.311 ± 0.0103 µM
same,kon,Jack bean urease [2],9.38e+06 M⁻¹ s⁻¹
same,koff,Jack bean urease [2],0.00292 s⁻¹
same,Ki,Jack bean urease [3],2.54 µM
same,Type of inhibition,Jack bean urease [3],Reversible
same,Ki',Jack bean urease [3],11.3 µM
same,MIC,H. pylori; [6],8 µM
same,MIC,H. pylori; [7],64 µM
same,IC50,H. pylori urease; IC50 Extracted urease,9.93 ± 0.9 µM
same,"viability at 72 h, 25 µg/mL",[4],94.6%
same,"viability at 72 h, 25 µg/mL",[5],92.1%
same,IC50,[1],52.5 ± 3.9 µM
NC(=S)NC(=O)Cc1cccc(C(F)(F)F)c1 [b9],melting point,,204.3 to 205.8 °C
same,IC50,H. pylori urease; IC50 Extracted urease,136 ± 7 µM
COc1ccc(CC(=O)NC(N)=S)cc1OC [b10],melting point,,146.3 to 147.6 °C
same,IC50,H. pylori urease; IC50 Extracted urease,24.2 ± 0.6 µM
same,"viability at 72 h, 25 µg/mL",[4],95.3%
same,"viability at 72 h, 25 µg/mL",[5],108%
same,IC50,[1],207 ± 16 µM
COc1ccc(CC(=O)NC(N)=S)cc1 [b11],melting point,,143.5 to 144.7 °C
same,Kd,Jack bean urease [2],0.667 ± 0.0137 µM
same,kon,Jack bean urease [2],572000 M⁻¹ s⁻¹
same,koff,Jack bean urease [2],0.0381 s⁻¹
same,Ki,Jack bean urease [3],3.94 µM
same,Type of inhibition,Jack bean urease [3],Reversible
same,Ki',Jack bean urease [3],12.7 µM
same,MIC,H. pylori; [6],32 µM
same,MIC,H. pylori; [7],> 64 µM
same,IC50,H. pylori urease; IC50 Extracted urease,16.3 ± 1.2 µM
same,"viability at 72 h, 25 µg/mL",[4],87.5%
same,"viability at 72 h, 25 µg/mL",[5],97%
same,IC50,[1],98.3 ± 5.9 µM
NC(=S)NC(=O)Cc1ccc(Br)cc1 [b12],melting point,,174.9 to 176.2 °C
same,IC50,H. pylori urease; IC50 Extracted urease,22.9 ± 0.4 µM
same,"viability at 72 h, 25 µg/mL",[4],89.4%
same,"viability at 72 h, 25 µg/mL",[5],91.5%
same,IC50,[1],189 ± 18 µM
NC(=S)NC(=O)Cc1ccccc1Cl [b13],melting point,,148.8 to 151.2 °C
same,IC50,H. pylori urease; IC50 Extracted urease,54.2 ± 4.8 µM
NC(=S)NC(=O)Cc1cccc(F)c1 [b14],melting point,,126 to 127.4 °C
same,IC50,H. pylori urease; IC50 Extracted urease,50.3 ± 3.5 µM
NC(=S)NC(=O)Cc1ccccc1Br [b15],melting point,,179 to 179.5 °C
same,IC50,H. pylori urease; IC50 Extracted urease,51.1 ± 4.4 µM
COc1ccccc1CC(=O)NC(N)=S [b17],melting point,,135.4 to 136.9 °C
same,IC50,H. pylori urease; IC50 Extracted urease,55.7 ± 3.1 µM
Cc1ccccc1CC(=O)NC(N)=S [b18],melting point,,135.6 to 137.1 °C
same,IC50,H. pylori urease; IC50 Extracted urease,46.2 ± 1.8 µM
NC(=S)NC(=O)Cc1ccccc1[N+](=O)[O-] [b20],melting point,,177.6 to 178.4 °C
same,IC50,H. pylori urease; IC50 Extracted urease,183 ± 12 µM
NC(=S)NC(=O)Cc1ccc(Cl)cc1Cl [b21],melting point,,166.6 to 167.2 °C
same,IC50,H. pylori urease; IC50 Extracted urease,67.7 ± 4.3 µM
NC(=S)NC(=O)Cc1ccc([N+](=O)[O-])cc1 [b22],melting point,,199.1 to 200.9 °C
same,IC50,H. pylori urease; IC50 Extracted urease,155 ± 16 µM
NC(=S)NC(=O)Cc1ccc2ccccc2c1 [b24],melting point,,202.6 to 204.4 °C
NC(=S)NC(=O)C(c1ccccc1)c1ccccc1 [b25],melting point,,169.5 to 172.7 °C
same,IC50,H. pylori urease; IC50 Extracted urease,318 ± 24 µM
NC(=S)NC(=O)Cc1ccc(-c2ccccc2)cc1 [b26],melting point,,187.3 to 189.6 °C
same,IC50,H. pylori urease; IC50 Extracted urease,279 ± 16 µM
NC(=S)NC(=O)Cc1cccc2ccccc12 [b27],melting point,,195.5 to 197.9 °C
NC(=S)NC(=O)Cc1ccc2c(c1)OCO2 [b28],melting point,,153.5 to 155 °C
same,IC50,H. pylori urease; IC50 Extracted urease,98 ± 5 µM
NC(=S)NC(=O)Cc1ccc(O)c(O)c1 [b29],melting point,,153.5 to 155 °C
same,Kd,Jack bean urease [2],0.783 ± 0.0213 µM
same,kon,Jack bean urease [2],19800 M⁻¹ s⁻¹
same,koff,Jack bean urease [2],0.0155 s⁻¹
same,Ki,Jack bean urease [3],8.21 µM
same,Type of inhibition,Jack bean urease [3],Reversible
same,Ki',Jack bean urease [3],21.5 µM
same,IC50,H. pylori urease; IC50 Extracted urease,18.4 ± 1.6 µM
same,IC50,[1],143 ± 6 µM

# Source: article PMC6968641, “N-monoarylacetothioureas as potent urease inhibitors: synthesis, SAR, and biological evaluation” (Journal of Enzyme Inhibition and Medicinal Chemistry, 2019)
